Measured values as given in patent publication US20250114486A1, “MARKED FATTY ACID DERIVATIVE, PRECURSOR COMPOUND THEREOF, AND USE THEREOF IN CONTRAST AGENT” (BEIJING NORMAL UNIVERSITY, priority 2022, published 2025).

Experiment: In vivo biodistribution of radioactive ^99mTc complexes in female SD rats
Parameters: species or system female Sprague-Dawley (SD) rats
Settings: for Biodistribution: Large Intestine / Biodistribution: Small Intestine / Biodistribution: Stomach: unit % ID
Procedure: Female SD rats (180-220 g, n=3) were fasted for 12 h before the experiment, and the purified radioactive 99mTc complexes 78-81 were prepared into physiological saline (containing 10% ethanol) solutions of about 250-350 μCi/mL. 200 μL of the above solution was injected into the tail vein of female SD rats, and the rats were killed by cervical dislocation at five time points, 15, 30, 60, 120 and 240 min after the tail vein injection. The blood, brain, heart, liver, spleen, lung, kidney, muscle, bone, large intestine, small intestine, stomach and tail were collected, weighed and counted, and the count distribution of each tissue and organ was calculated (unit: % ID/g, the unit of large intestine, small intestine and stomach is % ID), and the data are the mean±standard deviation of three mice in each phase. At the same time, 200 μL of the above solution was diluted to 20 mL, which was used as the % ID without deducting the tail count.

- Biodistribution: Blood (15 min post-injection): 0.018 ± 0.003 ID %/g
- Biodistribution: Bone (15 min post-injection): 0.11 ± 0.05 ID %/g
- Biodistribution: Brain (15 min post-injection): 0.008 ± 0.004 ID %/g
- Biodistribution: Heart (15 min post-injection): 0.94 ± 0.16 ID %/g
- Biodistribution: Kidney (15 min post-injection): 2.43 ± 0.10 ID %/g
- Biodistribution: Liver (15 min post-injection): 0.49 ± 0.03 ID %/g
- Biodistribution: Lungs (15 min post-injection): 0.14 ± 0.04 ID %/g
- Biodistribution: Muscle (15 min post-injection): 0.14 ± 0.04 ID %/g
- Biodistribution: Spleen (15 min post-injection): 0.23 ± 0.06 ID %/g
- Heart-to-Blood ratio (15 min post-injection): 53.37 ± 6.93
- Heart-to-Liver ratio (15 min post-injection): 1.91 ± 0.40
- Heart-to-Lungs ratio (15 min post-injection): 7.04 ± 1.69
- absolute myocardial uptake value (15 min post-injection): 0.94±0.16 % ID/g
- Biodistribution: Large Intestine (15 min post-injection): 5.34 ± 1.37 % ID
- Biodistribution: Small Intestine (15 min post-injection): 8.49 ± 0.85 % ID
- Biodistribution: Stomach (15 min post-injection): 0.27 ± 0.09 % ID
- Biodistribution: Blood (30 min post-injection): 0.026 ± 0.003 ID %/g
- Biodistribution: Bone (30 min post-injection): 0.10 ± 0.01 ID %/g
- Biodistribution: Brain (30 min post-injection): 0.010 ± 0.003 ID %/g
- Biodistribution: Heart (30 min post-injection): 1.42 ± 0.32 ID %/g
- Biodistribution: Kidney (30 min post-injection): 4.66 ± 0.51 ID %/g
- Biodistribution: Liver (30 min post-injection): 1.01 ± 0.29 ID %/g
- Biodistribution: Lungs (30 min post-injection): 0.32 ± 0.04 ID %/g
- Biodistribution: Muscle (30 min post-injection): 0.22 ± 0.07 ID %/g
- Biodistribution: Spleen (30 min post-injection): 0.26 ± 0.06 ID %/g
- Heart-to-Blood ratio (30 min post-injection): 54.80±11.86
- Heart-to-Liver ratio (30 min post-injection): 1.48 ± 0.45
- Heart-to-Lungs ratio (30 min post-injection): 4.40 ± 0.64
- absolute myocardial uptake value (30 min post-injection): 1.42±0.32 % ID/g
- Biodistribution: Large Intestine (30 min post-injection): 6.69 ± 0.68 % ID
- Biodistribution: Small Intestine (30 min post-injection): 10.71 ± 1.89 % ID
- Biodistribution: Stomach (30 min post-injection): 0.53 ± 0.07 % ID
- Biodistribution: Blood (60 min post-injection): 0.013 ± 0.003 ID %/g
- Biodistribution: Bone (60 min post-injection): 0.064 ± 0.004 ID %/g
- Biodistribution: Brain (60 min post-injection): 0.011 ± 0.005 ID %/g
- Biodistribution: Heart (60 min post-injection): 2.06 ± 0.06 ID %/g
- Biodistribution: Kidney (60 min post-injection): 2.39 ± 0.58 ID %/g
- Biodistribution: Liver (60 min post-injection): 0.33 ± 0.09 ID %/g
- Biodistribution: Lungs (60 min post-injection): 0.22 ± 0.03 ID %/g
- Biodistribution: Muscle (60 min post-injection): 0.48 ± 0.06 ID %/g
- Biodistribution: Spleen (60 min post-injection): 0.16 ± 0.06 ID %/g
- Heart-to-Blood ratio (60 min post-injection): 164.01±43.51
- Heart-to-Liver ratio (60 min post-injection): 6.43±1.85
- Heart-to-Lungs ratio (60 min post-injection): 9.48±1.39
- absolute myocardial uptake value (60 min post-injection): 2.06 0.06 % ID/g
- Biodistribution: Large Intestine (60 min post-injection): 12.36 ± 2.55 % ID
- Biodistribution: Small Intestine (60 min post-injection): 6.75 ± 1.89 % ID
- Biodistribution: Stomach (60 min post-injection): 0.56 ± 0.27 % ID
- Biodistribution: Blood (120 min post-injection): 0.009 ± 0.001 ID %/g
- Biodistribution: Bone (120 min post-injection): 0.07 ± 0.02 ID %/g
- Biodistribution: Brain (120 min post-injection): 0.010 ± 0.005 ID %/g
- Biodistribution: Heart (120 min post-injection): 1.73 ± 0.09 ID %/g
- Biodistribution: Kidney (120 min post-injection): 1.30 ± 0.41 ID %/g
- Biodistribution: Liver (120 min post-injection): 0.18 ± 0.01 ID %/g
- Biodistribution: Lungs (120 min post-injection): 0.16 ± 0.01 ID %/g
- Biodistribution: Muscle (120 min post-injection): 0.34 ± 0.03 ID %/g
- Biodistribution: Spleen (120 min post-injection): 0.15 ± 0.01 ID %/g
- Heart-to-Blood ratio (120 min post-injection): 197.36±32.29
- Heart-to-Liver ratio (120 min post-injection): 9.68±0.76
- Heart-to-Lungs ratio (120 min post-injection): 11.40±3.06
- absolute myocardial uptake value (120 min post-injection): 1.73±0.09 % ID/g
Compound: COC(C)(C)C[N+]#[C][99Tc-5]([C]#[N+]CC(C)(C)OC)([C]#[N+]CC(C)(C)OC)([C]#[N+]CC(C)(C)OC)([C]#[N+]CC(C)(C)OC)[C]#[N+]CC(C)(C)OCCCCCSCCCCC(=O)O [^99mTc complex 80]
